The source of these data is ChEMBL document CHEMBL1131766, “On the analogy between forskolin and D-glucose” (Bioorg Med Chem Lett, 1999).

The structures appear in SMILES notation.

The species entered for assay [1] is Rattus norvegicus. Description: Compound was tested for inhibition of glucose transport in rat adipocyte. Format: functional, organism-based.
The species named for assay [2] is Rattus norvegicus. Nature of the assay: Compound was tested for inhibition of glucose transport in adipocytes plasma membrane vesicles using [H]-forskolin as radioligand. Format: functional.
Assay [3] is filed under the species Homo sapiens. Description: Compound was testd for inhibition of glucose transport human erythrocytes using [H]-forskolin as radioligand. The format is functional, organism-based.
The species entered for assay [4] is Homo sapiens. Description: Compound was testd for inhibition of glucose transport human platelets using [H]-forskolin as radioligand. Format: functional, organism-based.

A word on the Ki: it is the equilibrium dissociation constant of an inhibitor or competing ligand from its target. The low end stands for tighter binding, the high end for weaker binding. In turn, `CC(=O)O[C@@H]1[C@@H](O)[C@H](O)[C@@H](CO)O[C@@H]1O` returned an inhibitory constant (Ki) in the assay filed under Rattus norvegicus [1] of 8500 µM.

The term EC50 denotes the midpoint of the concentration-response curve. Low readings indicate greater potency, high ones weaker potency. As for `C=C[C@@]1(C)CC(=O)[C@]2(O)[C@@]3(C)[C@@H](O)CCC(C)(C)[C@@H]3[C@H](O)[C@H](O)[C@@]2(C)O1`, in the assay filed under Rattus norvegicus [2], a half-maximal effect (EC50) was put at 7.1 µM.

Turning to `C=C[C@@]1(C)CC(=O)[C@]2(O)[C@@]3(C)[C@@H](O)CCC(C)(C)[C@@H]3[C@H](O)[C@H](OC(C)=O)[C@@]2(C)O1` [COLFORSIN], the EC50 in the assay listed under Homo sapiens [3], in the assay filed under Homo sapiens [4] and in the assay filed under Rattus norvegicus [2] was 0.24 µM in each case.
